Test results as given in US9101569B2, “Methods for the treatment of insulin resistance” (UNIVERSITE DE GENEVE, priority 2010, dated 2015).
*1 amine or outer side, *2 acyl side, *3 side chain or, on linkers, in order; H or OH if unused. Where a SMILES comes first, the peptide text is derived from it. Bridges are numbered along the chain shown (N, C = ends). X1 = O=C(CCC[*:2])[*:1]

Experiments:
[1] = system: HFD-induced obese rats; test: High-fat diet-induced obesity rat model, subcutaneous infusion: body weight gain, food intake, body composition; assay type: in vivo; conditions: for food intake / body weight gain: 14 days; for body weight gain: not observed in pair-fed group
Experimental: Another group of the above male Wistar rats were rendered obese as described above and were subcutaneously infused with saline or OT (NeoMPS®, Strasbourg, France) (50 nmol/day/rat) during 14 days.
The beneficial metabolic effects of OT administration were assayed in the same high-fat diet induced obesity model in rats as in Example 1 and in PPAR-alpha knockout mice (Lee et al., 1995, Mol. Cell. Biol., 15(6):3012-22). HFD-induced obese animals, saline or OT groups (see conditions under Example 1) were subcutaneously infused via minipumps (Alzet®, as above). OT was delivered at a dose of 50 nmol/day/rat during 14 days.
An EchoMRI-700 quantitative nuclear magnetic resonance (QMR) analyzer (Echo Medical Systems, Houston, Tex.) was used to measure total fat mass and lean body mass in rats at the beginning and the end of the treatment.
The beneficial metabolic effects of administration of an oxytocin derivative according to the invention (Carbetocin) were assessed in the same rat model of high-fat diet induced obesity as in Example 1. HFD-induced obese animals were subcutaneously infused via minipumps (Alzet®, as above) with saline or carbetocin (Bachem) (5 nmol/day/rat or 50 nmol/day/rat) during 14 days.
Body composition parameters were measured by quantitative nuclear magnetic resonance as described in Example 3 at the beginning and 10 days of treatment.

[2] = system: differentiated 3T3-L1 adipocytes; test: Lipid metabolism in differentiated 3T3-L1 adipocytes in vitro; assay type: cell-based, Murine; conditions: incubated in the presence of OEA
Experimental: The in vitro effect of OT on lipid metabolism in differentiated 3T3-L1 adipocytes was assayed as follows. Murine 3T3-L1 fibroblasts were differentiated towards a […] phenotype as previously described (Olson et al., 1997, Mol. Cell. Biol., 2425-2435). In brief, cells were cultured in Dulbecco's modified eagle medium (DMEM) with 4.5 g/l glucose supplemented with 10% heat-inactivated depleted calf serum (DCS) at 37° C./8% CO2. Cells were induced to differentiate, two days post confluence, by sequential incubations with: DMEM 4.5 g/l glucose, 10% fetal bovine serum (FCS) containing 1 μg/ml insulin, 0.25 μM dexamethasone and 0.5 mM isobutylmethylxanthane (IBMX) for 4 days; DMEM 4.5 g/l glucose, 10% FCS containing insulin alone for an additional 4 days; DMEM 4.5 g/l glucose, 10% FCS for 3-4 days. Differentiation was considered achieved when more than 90% of cells display an accumulation of large lipid droplets in their cytoplasm.

Row | SMILES | food intake ([1]; s.c. 5 nmol/day) | body weight gain ([1]; s.c. 5 nmol/day) | food intake ([1]; s.c. 50 nmol/day) | body weight gain ([1]; s.c. 50 nmol/day) | fat mass (QMR) ([1]; s.c. carbetocin (5 nmol/d and 50 nmol/d groups), 10 days, independent of food intake) | mRNA expression of PPAR-alpha [2] | mRNA expression of most of the PPAR-alpha related genes (Acadm, Acox1, Ehhadh, Ucp3) [2]
1 | CC[C@H](C)[C@@H]1NC(=O)[C@H](Cc2ccc(OC)cc2)NC(=O)CCCSC[C@@H](C(=O)N2CCC[C@H]2C(=O)N[C@@H](CC(C)C)C(=O)NCC(N)=O)NC(=O)[C@H](CC(N)=O)NC(=O)[C@H](CCC(N)=O)NC1=O [carbetocin, Butyryl-Tyr(Me)-Ile-Gln-Asn-Cys-Pro-Leu-Gly-NH2] (Y(Me)IQNCPLG-NH2; linker N-5 via X1) | decreased | decreased | decreased | decreased | significant decrease |  | 
2 | CCCCCCCC/C=C\CCCCCCCC(=O)NCCO [OEA, Oleoylethanolamide] |  |  |  |  |  | induce | induce
